No end group written: not given here.
Key:
IGF-1R = IGF-1R (Homo sapiens, UniProt P08069); experiment: Phage ELISA, binding of phage clones to IGF-1R (ratio over background); details: ratio of IGF-1R divided by ratio of IR
Protocol: (§1) HIT indicates binder; CAND indicates binder candidate; LDH indicates binding to lactate dehydrogenase (negative control); Sp/Irr indicates the ratio of specific binding over non-specific binding.
(§2) Sp/Irr=the ratio of specific binding over non-specific binding; LDH=lactate dehydrogenase (negative control).
(§3) For phage pools, cells from frozen stocks were grown and phage were prepared as described above. For analysis of individual clones, colonies were picked and phage prepared as described above. Subsequent steps were the same for pooled and clonal phage. Microtiter wells were coated and blocked as described above. […] Phage resuspended in MPBS (PBS containing 2% non-fat milk) were added to wells (100 μl/well) and incubated at room temperature for 1 h. The phage solution was then removed, and the wells were washed three times with PBS at room temperature.
(§4) Anti-M13 antibody conjugated to horseradish peroxidase (Pharmacia Biotech) was diluted 1:3000 in MPBS and added to each well (100 μl/well). Incubation was for another hour at room temperature, followed by PBS washes as described. Color was developed by addition of ABTS solution (100 μl/well; Boehringer). […] Data points were averaged after subtraction of appropriate blanks. A clone was considered “positive” if the A405 of the well was ≧2-fold over background.

IR = IR (Homo sapiens, UniProt P06213); experiment: Phage ELISA, binding of phage clones to IR (ratio over background); details: ratio of IR divided by ratio of IGF-1R
Protocol: as §1, §2, §3, §4

Substance	Comparisons IGF-1R/IR (IGF-1R)	Comparisons IR/IGF-1R (IR)
ASSASGFYELLQRLAGLGLEV [20E2B-3-C4-IGFR]	6.2	–
DRAFYNGLRDLVGAVYGAWD [R20α-4-20C11-IR]	10.3	0.1
RCGRW*AEMGAGDDPFYHKLSELVCG (RCGRWXAEMGAGDDPFYHKLSELVCG; not fully specified; X: residue not identified in the source; cysteine pairing not given here) [Peptide B6Hα-2-C4-IR]	11.0	0.1
GCEVIVEEGDSADPFYHKLSELCQGS [Peptide B6Hα-2-D1-IR]	4.2	0.2
VNQSGSIHENFYDWFERQVSHQRGVR [H2CA-4-F10-IGFR]	5.9	0.2
SQAGSAFYAWFDQVLRTVHSA [20E2Bβ-4-G6-IR]	3.3	0.3
DRDFCRFYERLTALVGGQVDGGWPC [20C-3-F6-IGFR]	14.1	0.1
MNVFVSFYDAIDQLVCQRIGC [20E2A-4-G11-IGFR]	2.6	0.4
SRVAATKEKRPSDDPFYHKLSELLQGS [Peptide B6Hα-3-F7-IR]	3.1	0.3
NYRRQVFNGNFYDWFDRQVFSLVTPG [H2CA-3-D8-IGFR]	4.0	0.3
RCGRELYHSTFYDWFDRQVAGRTCPS [H2CA-1-A7-IGFR]	3.7	0.3
NSRDGGFYLQLERLLGFPVTG [20E2B-3-D4-IGFR]	9.6	0.1
GNGDGMFYQLLSLLVGRDMHV [20E2B-3-C2-IGFR]	13.8	0.1
FFYRCLSRLLGGQLGSRLGLSCIGD [20C-3-E4-IGFR]	6.0	0.2
SSYGCDGFYLMLFSLGLVASQELEC [20C-3-A1-IGFR]	13.7	0.1
SACQFDCHENFYDWFARQVSGGAAYG [H2CA-4-H8-IGFR]	9.4	0.1
YRGMLVLGRSSDGAGKVAFERPARIGQTVFAVNFYDWFV [Peptide A6L-0-E6-IR]	17.0	0.1
FYDAIDQLVRGSARAGGTRD [R20α-3-20E2-IR]	12.9	0.1
QSGSGDFYDWLSRLIRGNGDG [20E2Bβ-3-C7-IR]	2.0	0.5
QAVQPGFHEEFYDWFVRQVSTGVGGG [H2CA-4-H4-IGFR]	4.2	0.2
RGCNDDGGKGWSDDPFYHKLSELICGG [Peptide B6Hα-1-A2-IR]	14.6	–
GGTKAVAKVGTRDDPFYHKLSELLQGS [Peptide B6Hα-4-G8-IR]	3.6	0.3
RGIVAMVEATEVGSDHPFYHKLSELVQGS [Peptide B6Hα-2-C7-IR]	6.7	0.1

Substance	Comparisons IGF-1R/IR (IGF-1R)	Comparisons IR/IGF-1R (IR)
FRTLAAQHDSFYDWFDRQVSGAAGER [H2CA-3-C11-IGFR]	2.1	0.5
KLHNLMFYYGLQRLVWGAGLG [20E2B-4-H3-IGFR]	13.9	0.1
GAPVDQLHEDFYDWFVRQVSQAATG [H2CA-2-B2-IGFR]	3.5	0.3
FFYDCLAALLQGVARYHDLCAVEIT [20C-4-C7-IGFR]	21.8	<0.1
GFREGNFYEWFQAQVT [Peptide E4Dα-4-H2-IR]	4.1	0.2
LSSDGQFYRALNLLLQGSAGR [20E2B-2-B7-IGFR]	6.7	0.1
GFREGSFYDWFQAQVT [E4Dα-2-D11-IR]	3.4	0.3
TFYSCLASLLTGTPQPNRGPWERCR [20C-3-G3-IGFR]	27.0	<0.1
YRGMLVLGRISGGAGKAASERPARIGQKVSAVNFYDWFV [Peptide A6L-0-H3-IR]	13.0	0.1
PDLHKGFYAQLAQLIRGQLLS [20E2B-3-E3-IGFR]	13.1	0.1
LGYQEPFQQNFYDWFVRQVSGAENAG [H2CA-3-E8-IGFR]	2.9	0.3
GCITAENGAGDPFYHKLSELGGCS [Peptide B6Hα-1-B3-IR]	2.9	0.3
EGSGFYGYFFSLLGLQG [NNRPγ-4-A9-IR]	7.1	0.1
VVTPVNFYRALEALVRG.RLG (VVTPVNFYRALEALVRGXRLG; not fully specified; printed as VVTPVNFYRALEALVRG.RLG; X: residue not identified in the source; ends and bridges not checked) [20E2B-2-B11-IGFR]	9.4	0.1
RAGSSDFHEDFYEWFVRQVSLSLKGK [H2CA-2-B9-IGFR]	4.2	0.2
YRGMLVLGRISDGAG#VASEPPARIGRKVFAVNFYDWFV [Peptide A6L-0-E4-IR]	13.0	0.1
LSCLAYSRHGIWRPSTDLGLGRSVGEGSVSTRWRGYDWFE [40F-4-D1-IGFR]	13.1	0.1
AGTPAQVG*NRLWSVWPGEHWNTVDPFYNKLSELLRESGA (AGTPAQVGXNRLWSVWPGEHWNTVDPFYNKLSELLRESGA; not fully specified; X: residue not identified in the source; ends and bridges not checked) [Peptide B6L-4-A7-IR]	1.8	0.6
RCQGTGFYTCIQELIGFGDPD [20E2B-4-H9-IGFR]	5.6	0.2
FYVQQWGHENFYDWFDRQVSQSGGAG [H2CA-4-F1-IGFR]	3.8	0.3
RFSTDGFYQYLLALVGGGPVG [20E2B-1-A11-IGFR]	9.7	0.1
TLRSPTFYDWLEMVLTHGQGG [20E2B-1-A8-IGFR]	5.0	0.2
CSMAAVAEAGDDDDPFYHKLSELCQGS [Peptide B6Hα-3-F1-IR]	1.8	0.5

Substance	Comparisons IGF-1R/IR (IGF-1R)	Comparisons IR/IGF-1R (IR)
CCTTEMVVMDARDDPFYHKLSELVTGG [Peptide B6Hα-1-B5-IR]	20.5	0.0
MMVVDGFYDALHQLVVAQSLG [20E2A-3-D10-IGFR]	3.9	0.3
GLDHSDAVGVHLGFAWPAQARGRWEAGGLEDTWAGYDWL [40F-4-B1-IGFR]	13.1	0.1
VERSASSQDGNFYDWFVVQIR [Peptide A6S-2-D1-IR]	2.6	0.4
RCGDEEGWQENRRDDPFYHKLSELFGGC [Peptide B6Hα-3-E5-IR]	2.9	0.3
EAASLGSQDRNFYDWFVRQVV [Peptide A6S-2-D11-IR]	2.8	0.4
RGQSDAFYSGLWALIGLSDG [Peptide R20β-4-A6-IR]	17.3	0.1
GGTEVDFYRALERLVRGQLGL [20E2B-3-D8-IGFR]	11.3	0.1
PAGPCGFYCGLGLLLHGDQSP [20E2B-4-H8-IGFR]	5.9	0.2
RCEEKQAEVGPSSDPFYHKMSELLGCR [Peptide B6Hα-3-E9-IR]	14.2	0.1
W.GYAWLS [40F-4-D10-IGFR]	11.7	0.1
RLFYCGIQALGANLGYSGCV [R20α-4-20A12-IR]	16.6	0.1
LRIANLFYQRLWDLAFGGGG [20E2B-3-E8-IFGR]	11.1	0.1
AETSAQVGWQRLWSVWPGDHWSTLDPFYHKLSELLRESGA [Peptide B6L-3-G5-IR]	1.4	0.7
AGSVTSFYDAMEQLVATGTSA [20E2A-3-A4-IGFR]	1.4	0.7
PGTDLGFYQALRCVVIQGACD [20E2B-2-B2-IGFR]	8.1	0.1
VDTPAQVGWNRLWSVGPGEHWYTDDPFYH*LSELLRESGA [Peptide B6L-3-G6-IR]	1.4	0.7
GCVVEWQKWHGASDPFYHKLSELGGCS [B6Hα-3-F10-IR]	4.6	0.2
RGKTAAVIVGRPADPFYHKLSELLQGG [Peptide B6Hα-3-E8-IR]	4.8	0.2
AQPCGGFYGLLEQLVGRSVCD [20E2B-4-F10-IGFR]	7.8	0.1
LRRQAPVEENFYDWFVRQVSGDRVGG [H2CA-3-D7-IGFR]	3.7	0.3
YSCGDGFYSLLSDLLGGQFRC [20E2B-4-H12-IGFR]	12.8	0.1

— patent publication US20070004634A1 (Novo Nordisk A/S, priority 1998, published 2007)
